# Data published in patent publication US9428503B2, “Imidazo[4,5-c]quinolin-2-one compounds and their use in treating Cancer” (AstraZeneca AB, priority 2014, dated 2016).
# Values joined by “and” are separate entries in the source; they are usually repeats but may differ in a detail not shown here. Identical values can stand only once. Counter-ions that a name gives are not always drawn.
# Key:
# Type in all cases: cell-based
# [1] = target: mTOR (Homo sapiens (Human), UniProt P42345); test: Assay d) mTOR cellular potency assay (phospho-AKT Ser473 in MDA-MB-468 cells); settings: MDA-MB-468 cells, phospho-AKT Ser473, 2 h; geometric mean where repeated; read-out: Assay d) mTOR Cell IC50
# [2] = target: ATM kinase (Homo sapiens (Human), UniProt Q13315); test: Assay a) ATM cellular potency assay (pATM Ser1981 in X-ray irradiated HT29 cells); settings: HT29 cells, pATM Ser1981 after X-ray irradiation; geometric mean where repeated; read-out: Assay a) ATM Cell IC50
# [3] = target: PI3K-α (Homo sapiens, UniProt P42336); test: Assay c) PI3K cellular potency assay (phospho-Akt T308 ELISA in BT474 cells); settings: BT474 cells, phospho-Akt T308, 2 h; geometric mean where repeated; read-out: Assay c) PI3Kα Cell IC50
# Chain of PI3K-α (P42336 whole entry, looked up): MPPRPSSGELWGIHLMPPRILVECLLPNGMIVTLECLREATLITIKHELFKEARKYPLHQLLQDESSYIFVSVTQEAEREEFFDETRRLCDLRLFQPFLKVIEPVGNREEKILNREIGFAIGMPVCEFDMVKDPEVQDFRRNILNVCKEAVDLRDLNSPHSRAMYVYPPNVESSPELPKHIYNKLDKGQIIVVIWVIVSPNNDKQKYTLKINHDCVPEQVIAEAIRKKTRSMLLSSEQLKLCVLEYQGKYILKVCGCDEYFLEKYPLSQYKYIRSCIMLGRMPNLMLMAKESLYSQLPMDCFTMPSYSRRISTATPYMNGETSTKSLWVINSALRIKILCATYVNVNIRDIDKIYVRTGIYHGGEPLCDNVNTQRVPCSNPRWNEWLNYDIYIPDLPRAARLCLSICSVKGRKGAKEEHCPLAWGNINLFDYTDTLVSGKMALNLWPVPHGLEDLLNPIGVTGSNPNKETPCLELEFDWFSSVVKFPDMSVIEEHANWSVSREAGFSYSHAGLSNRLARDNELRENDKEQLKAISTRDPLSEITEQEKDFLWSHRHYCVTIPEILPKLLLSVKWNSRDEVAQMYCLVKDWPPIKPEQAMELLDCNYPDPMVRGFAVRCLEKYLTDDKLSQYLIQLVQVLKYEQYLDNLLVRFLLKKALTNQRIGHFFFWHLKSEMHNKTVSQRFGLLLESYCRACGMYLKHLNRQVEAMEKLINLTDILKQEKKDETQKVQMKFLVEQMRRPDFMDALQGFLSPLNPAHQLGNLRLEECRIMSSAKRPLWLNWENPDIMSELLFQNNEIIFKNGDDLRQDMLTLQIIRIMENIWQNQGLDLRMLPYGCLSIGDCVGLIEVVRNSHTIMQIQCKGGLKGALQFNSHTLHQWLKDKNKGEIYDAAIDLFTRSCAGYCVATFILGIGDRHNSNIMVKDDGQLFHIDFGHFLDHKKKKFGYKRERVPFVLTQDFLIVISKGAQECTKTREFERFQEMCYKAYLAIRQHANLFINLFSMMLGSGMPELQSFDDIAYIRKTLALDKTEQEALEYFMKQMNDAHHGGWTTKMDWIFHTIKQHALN
# [4] = target: ATR kinase (Homo sapiens (Human), UniProt Q13535); test: Assay b) ATR cellular potency assay (pChk1 Ser345 in HT29 cells treated with 4NQO); settings: HT29 cells, pChk1 Ser345 after 4NQO; geometric mean where repeated; read-out: Assay b) ATR Cell IC50
# Chain of ATR kinase (Q13535 whole entry): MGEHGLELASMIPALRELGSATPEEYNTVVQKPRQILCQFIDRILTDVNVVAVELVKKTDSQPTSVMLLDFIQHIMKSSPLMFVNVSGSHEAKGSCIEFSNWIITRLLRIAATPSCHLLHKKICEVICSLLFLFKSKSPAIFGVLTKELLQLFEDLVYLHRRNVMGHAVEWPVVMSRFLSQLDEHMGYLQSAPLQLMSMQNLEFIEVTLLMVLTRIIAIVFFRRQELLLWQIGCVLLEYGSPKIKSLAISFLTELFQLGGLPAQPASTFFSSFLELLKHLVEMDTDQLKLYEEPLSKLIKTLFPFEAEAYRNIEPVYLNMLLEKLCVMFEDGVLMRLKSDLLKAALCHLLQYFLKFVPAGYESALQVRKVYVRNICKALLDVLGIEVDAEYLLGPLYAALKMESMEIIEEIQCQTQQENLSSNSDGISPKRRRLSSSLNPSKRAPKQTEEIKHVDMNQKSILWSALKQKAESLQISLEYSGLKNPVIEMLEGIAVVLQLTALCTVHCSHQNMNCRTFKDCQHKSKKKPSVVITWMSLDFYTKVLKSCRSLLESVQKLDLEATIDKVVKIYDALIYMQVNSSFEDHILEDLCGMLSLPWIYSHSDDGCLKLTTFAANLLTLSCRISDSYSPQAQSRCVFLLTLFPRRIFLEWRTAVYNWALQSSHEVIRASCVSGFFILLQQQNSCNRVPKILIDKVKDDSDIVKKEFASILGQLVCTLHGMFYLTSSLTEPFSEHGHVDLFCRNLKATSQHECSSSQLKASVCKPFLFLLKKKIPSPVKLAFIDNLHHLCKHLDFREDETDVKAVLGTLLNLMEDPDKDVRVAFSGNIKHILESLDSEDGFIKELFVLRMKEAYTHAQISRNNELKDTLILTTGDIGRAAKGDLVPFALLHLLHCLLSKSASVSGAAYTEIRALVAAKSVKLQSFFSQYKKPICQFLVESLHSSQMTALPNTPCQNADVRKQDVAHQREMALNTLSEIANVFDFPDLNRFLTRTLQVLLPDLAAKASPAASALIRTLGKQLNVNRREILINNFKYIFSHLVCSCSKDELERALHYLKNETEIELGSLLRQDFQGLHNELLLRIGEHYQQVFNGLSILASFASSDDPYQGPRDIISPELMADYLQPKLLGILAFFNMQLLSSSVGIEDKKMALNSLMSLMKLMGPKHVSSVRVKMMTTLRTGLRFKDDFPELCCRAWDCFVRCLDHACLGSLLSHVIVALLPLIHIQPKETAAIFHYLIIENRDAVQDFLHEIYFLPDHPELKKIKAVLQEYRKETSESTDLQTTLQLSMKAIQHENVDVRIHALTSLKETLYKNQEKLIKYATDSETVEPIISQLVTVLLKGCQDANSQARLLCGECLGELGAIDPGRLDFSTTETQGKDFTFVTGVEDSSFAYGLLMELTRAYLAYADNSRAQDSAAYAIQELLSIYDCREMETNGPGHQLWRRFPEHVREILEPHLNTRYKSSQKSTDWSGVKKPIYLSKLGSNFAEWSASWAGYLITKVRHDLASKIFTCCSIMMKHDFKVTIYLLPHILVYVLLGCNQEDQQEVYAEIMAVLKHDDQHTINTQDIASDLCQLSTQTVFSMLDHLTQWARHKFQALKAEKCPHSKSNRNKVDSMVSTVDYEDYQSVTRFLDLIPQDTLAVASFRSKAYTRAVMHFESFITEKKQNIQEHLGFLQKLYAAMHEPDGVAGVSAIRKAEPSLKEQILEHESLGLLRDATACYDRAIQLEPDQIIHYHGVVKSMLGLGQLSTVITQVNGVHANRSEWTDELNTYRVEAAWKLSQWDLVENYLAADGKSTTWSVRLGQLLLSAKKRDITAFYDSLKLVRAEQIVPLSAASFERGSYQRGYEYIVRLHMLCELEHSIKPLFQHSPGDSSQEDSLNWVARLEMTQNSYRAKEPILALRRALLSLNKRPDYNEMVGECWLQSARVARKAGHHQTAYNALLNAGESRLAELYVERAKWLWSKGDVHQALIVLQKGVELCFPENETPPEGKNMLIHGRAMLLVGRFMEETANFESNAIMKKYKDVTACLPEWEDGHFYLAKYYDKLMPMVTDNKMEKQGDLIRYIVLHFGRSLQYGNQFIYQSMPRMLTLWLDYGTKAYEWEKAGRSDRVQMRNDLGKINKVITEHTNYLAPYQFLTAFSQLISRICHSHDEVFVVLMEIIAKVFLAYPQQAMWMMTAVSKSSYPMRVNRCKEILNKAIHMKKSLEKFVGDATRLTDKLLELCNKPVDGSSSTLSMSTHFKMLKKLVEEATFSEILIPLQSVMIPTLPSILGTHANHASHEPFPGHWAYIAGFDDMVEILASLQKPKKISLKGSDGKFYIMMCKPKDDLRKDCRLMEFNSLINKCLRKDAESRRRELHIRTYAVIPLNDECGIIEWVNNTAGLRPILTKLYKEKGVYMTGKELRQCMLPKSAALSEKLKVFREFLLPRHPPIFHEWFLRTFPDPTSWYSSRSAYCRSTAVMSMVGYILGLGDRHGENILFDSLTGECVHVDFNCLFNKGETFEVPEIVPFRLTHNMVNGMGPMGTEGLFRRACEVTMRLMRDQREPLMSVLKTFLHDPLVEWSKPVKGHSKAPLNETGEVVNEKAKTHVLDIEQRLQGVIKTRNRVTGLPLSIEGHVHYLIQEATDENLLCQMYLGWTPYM
# Chain of ATR kinase (Q8WXE1 whole entry partner): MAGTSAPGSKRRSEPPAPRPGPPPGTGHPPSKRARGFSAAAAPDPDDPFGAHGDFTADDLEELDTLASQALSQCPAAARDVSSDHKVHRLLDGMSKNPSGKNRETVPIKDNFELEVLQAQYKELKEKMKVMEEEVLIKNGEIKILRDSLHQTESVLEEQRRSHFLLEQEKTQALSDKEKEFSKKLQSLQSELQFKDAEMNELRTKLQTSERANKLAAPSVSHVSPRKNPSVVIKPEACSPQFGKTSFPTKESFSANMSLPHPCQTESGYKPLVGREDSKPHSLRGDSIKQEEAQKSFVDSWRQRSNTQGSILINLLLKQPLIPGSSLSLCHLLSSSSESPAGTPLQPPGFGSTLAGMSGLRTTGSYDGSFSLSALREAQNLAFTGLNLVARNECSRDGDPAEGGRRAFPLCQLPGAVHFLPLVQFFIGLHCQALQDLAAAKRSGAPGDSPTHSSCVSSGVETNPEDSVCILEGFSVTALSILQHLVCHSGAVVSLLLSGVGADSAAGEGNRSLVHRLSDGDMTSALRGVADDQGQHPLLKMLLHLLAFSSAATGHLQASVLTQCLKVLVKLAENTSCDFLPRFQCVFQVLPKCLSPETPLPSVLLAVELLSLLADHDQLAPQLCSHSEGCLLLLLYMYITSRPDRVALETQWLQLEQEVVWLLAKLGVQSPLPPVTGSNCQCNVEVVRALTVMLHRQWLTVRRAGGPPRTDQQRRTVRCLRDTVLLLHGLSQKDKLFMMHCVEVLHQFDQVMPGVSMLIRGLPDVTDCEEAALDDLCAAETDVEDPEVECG
SMILES,IC50 [1],IC50 [2],IC50 [3],IC50 [4]
"Cn1c(=O)n(C2CCCOC2)c2c3cc(-c4ccc(OCCCN5CCC5)nc4)ccc3ncc21 (stereo in doubt) [Example 60, 8-[6-[3-(azetidin-1-yl)propoxy]-3-pyridyl]-3-methyl-1-[(3S)-tetrahydropyran-3-yl]imidazo[4,5-c]quinolin-2-one]",1360 nM,0.765 nM,499 nM,> 24000 nM
"CO[C@H]1C[C@@H](n2c(=O)n(C)c3cnc4ccc(-c5ccc(OCCCN(C)C)nc5)cc4c32)C1 [Example 2, 8-[6-(3-Dimethylaminopropoxy)pyridin-3-yl]-1-(cis-3-methoxycyclobutyl)-3-methylimidazo[4,5-c]quinolin-2-one]",1170 nM,0.249 nM,1770 nM,> 29000 nM
"CN(C)CCCOc1ccc(-c2cc3c(cc2F)ncc2c3n(C3(C)CCOCC3)c(=O)n2C)cn1 [Example 3, 8-[6-(3-Dimethylaminopropoxy)pyridin-3-yl]-7-fluoro-3-methyl-1-(4-methyloxan-4-yl)imidazo[5,4-c]quinolin-2-one]",4930 nM,2.03 nM,22400 nM,> 30000 nM
"CO[C@H]1C[C@@H](n2c(=O)n(C)c3cnc4cc(F)c(-c5ccc(OCCCN(C)C)nc5)cc4c32)C1 [Example 6, 8-[6-(3-dimethylaminopropoxy)pyridin-3-yl]-7-fluoro-1-(cis-3-methoxycyclobutyl)-3-methylimidazo[4,5-c]quinolin-2-one]",> 16900 nM,1.05 nM,> 30000 nM,> 30000 nM
"CN(C)CCCOc1ccc(-c2ccc3ncc4c(c3c2)n(C2(C)CCOCC2)c(=O)n4C)cn1 [Example 7, 8-[6-(3-dimethylaminopropoxy)pyridin-3-yl]-3-methyl-1-(4-methyloxan-4-yl)imidazo[5,4-c]quinolin-2-one]",266 nM,0.96 nM,541 nM,10800 nM
"CN(C)CCCOc1ccc(-c2cc3c(cc2F)ncc2c3n(C3CCOCC3)c(=O)n2C)cn1 [Example 8, 8-[6-(3-dimethylaminopropoxy)pyridin-3-yl]-7-fluoro-3-methyl-1-(oxan-4-yl)imidazo[5,4-c]quinolin-2-one]",14000 nM,0.782 nM,18100 nM,> 30000 nM
"CN(C)CCCOc1ccc(-c2ccc3ncc4c(c3c2)n([C@@H]2CCCOC2)c(=O)n4C)cn1 [Example 16, 8-[6-(3-dimethylaminopropoxy)pyridin-3-yl]-3-methyl-1-[(3R)-oxan-3-yl]imidazo[5,4-c]quinolin-2-one]",714 nM,–,311 nM,> 22800 nM
"CN(C)CCCOc1ccc(-c2ccc3ncc4c(c3c2)n([C@H]2CCCOC2)c(=O)n4C)cn1 [Example 17, 8-[6-(3-dimethylaminopropoxy)pyridin-3-yl]-3-methyl-1-[(3S)-oxan-3-yl]imidazo[5,4-c]quinolin-2-one]",1470 nM,–,968 nM,> 30000 nM
"CO[C@H]1C[C@@H](n2c(=O)n(C)c3cnc4ccc(-c5ccc(OCCCN(C)C)nc5F)cc4c32)C1 [Example 18, 8-[6-(3-dimethylaminopropoxy)-2-fluoropyridin-3-yl]-1-(cis-3-methoxycyclobutyl)-3-methylimidazo[4,5-c]quinolin-2-one]",3780 nM,–,2730 nM,> 30000 nM
"CO[C@H]1C[C@@H](n2c(=O)n(C)c3cnc4cc(F)c(-c5ccc(OCCCN6CCCC6)nc5)cc4c32)C1 [Example 27, 7-Fluoro-1-(cis-3-methoxycyclobutyl)-3-methyl-8-[6-(3-pyrrolidin-1-ylpropoxy)pyridin-3-yl]imidazo[4,5-c]quinolin-2-one]",> 17500 nM,–,> 29800 nM,> 23300 nM
"CO[C@H]1C[C@@H](n2c(=O)n(C)c3cnc4ccc(-c5ccc(OCCCN6CCCC6)nc5)cc4c32)C1 [Example 28, 1-(cis-3-methoxycyclobutyl)-3-methyl-8-[6-(3-pyrroldin-1-ylpropoxy)pyridin-3-yl]imidazo[4,5-c]quinolin-2-one]",2770 nM,0.176 nM,–,> 22800 nM
"Cn1c(=O)n([C@H]2CCCOC2)c2c3cc(-c4ccc(OCCCN5CCCC5)nc4)ccc3ncc21 [Example 29, 3-methyl-1-[(3S)-oxan-3-yl]-8-[6-(3-pyrrolidin-1-ylpropoxy)pyridin-3-yl]imidazo[5,4-c]quinolin-2-one]",605 nM,–,1650 nM,19000 nM
"Cn1c(=O)n(C2CCOCC2)c2c3cc(-c4ccc(OCCCN5CCCC5)nc4)ccc3ncc21 [Example 30, 3-methyl-1-(oxan-4-yl)-8-[6-(3-pyrrolidin-1-ylpropoxy)pyridin-3-yl]imidazo[5,4-c]quinolin-2-one]",1570 nM,–,2330 nM,19000 nM
"CO[C@H]1C[C@@H](n2c(=O)n(C)c3cnc4ccc(-c5ccc(OCCCN6CCCCC6)nc5)cc4c32)C1 [Example 33, 1-(cis-3-methoxycyclobutyl)-3-methyl-8-[6-(3-piperidin-1-ylpropoxy)pyridin-3-yl]imidazo[4,5-c]quinolin-2-one]",2870 nM,–,12400 nM,–
"CN(C)CCCOc1ccc(-c2ccc3ncc4c(c3c2)n(C2CCC2)c(=O)n4C)cn1 [Example 46, 1-cyclobutyl-8-[6-[3-(dimethylamino)propoxy]-3-pyridyl]-3-methyl-imidazo[4,5-c]quinolin-2-one methanesulfonic acid salt]",–,3.15 nM,794 nM,> 26000 nM
"CN(C)CCCOc1ccc(-c2ccc3ncc4c(c3c2)n([C@H]2CCOC2)c(=O)n4C)c(F)n1 [Example 49, 8-[6-[3-(dimethylamino)propoxy]-2-fluoro-3-pyridyl]-3-methyl-1-[(3S)-tetrahydrofuran-3-yl]imidazo[4,5-c]quinolin-2-one methanesulfonic acid salt]",3760 nM,1.34 nM,–,> 30000 nM
CN(C)CCCOc1ccc(-c2ccc3ncc4c(c3c2)n([C@@H]2CCOC2)c(=O)n4C)c(F)n1 [Example 50],4480 nM,1.44 nM,–,> 30000 nM
"CN(C)CCCOc1ccc(-c2ccc3ncc4c(c3c2)n(C2COC2)c(=O)n4C)c(F)n1 [Example 52, 8-[6-[3-(dimethylamino)propoxy]-2-fluoro-3-pyridyl]-3-methyl-1-(oxetan-3-yl)imidazo[4,5-c]quinolin-2-one methanesulfonic acid salt]",12100 nM,–,7200 nM,> 30000 nM
"Cn1c(=O)n([C@@H]2CCOC2)c2c3cc(-c4ccc(OCCCN5CCCCC5)nc4)ccc3ncc21 [Example 54, 3-methyl-8-[6-[3-(1-piperidyl)propoxy]-3-pyridyl]-1-[(3R)-tetrahydrofuran-3-yl]imidazo[4,5-c]quinolin-2-one methane sulfonic acid salt]",–,1.1 nM and 0.715 nM,–,> 27100 nM
"Cn1c(=O)n([C@H]2CCOC2)c2c3cc(-c4ccc(OCCCN5CCCCC5)nc4)ccc3ncc21 [Example 55, 3-methyl-8-[6-[3-(1-piperidyl)propoxy]-3-pyridyl]-1-[(3S)-tetrahydrofuran-3-yl]imidazo[4,5-c]quinolin-2-one]",–,0.493 nM,–,> 16100 nM
"Cn1c(=O)n([C@@H]2CCCOC2)c2c3cc(-c4ccc(OCCCN5CCCC5)nc4)ccc3ncc21 [Example 59, 3-methyl-8-[6-(3-pyrrolidin-1-ylpropoxy)-3-pyridyl]-1-[(3R)-tetrahydropyran-3-yl]imidazo[4,5-c]quinolin-2-one]",610 nM,–,264 nM,> 19100 nM
"Cn1c(=O)n([C@H]2CCCOC2)c2c3cc(-c4ccc(OCCCN5CCCC5)nc4F)ccc3ncc21 [Example 61, 8-[2-Fluoro-6-(3-pyrrolidin-1-ylpropoxy)-3-pyridyl]-3-methyl-1-[(3S)-tetrahydropyran-3-yl]imidazo[4,5-c]quinolin-2-one]",–,0.554 nM,> 16200 nM,> 30000 nM
"CO[C@@H]1CC[C@@H](n2c(=O)n(C)c3cnc4cc(F)c(-c5ccc(OCCCN(C)C)nc5)cc4c32)C1 [Example 62, 8-[6-[3-(Dimethylamino)propoxy]-3-pyridyl]-7-fluoro-1-[(1R,3R)-3-methoxycyclopentyl]-3-methyl-imidazo[4,5-c]quinolin-2-one]",> 30000 nM,0.507 nM,–,–
"CO[C@H]1CC[C@H](n2c(=O)n(C)c3cnc4ccc(-c5ccc(OCCCN6CCCC6)nc5)cc4c32)C1 [Example 66, 1-[(1S,3S)-3-methoxycyclopentyl]-3-methyl-8-[6-(3-pyrrolidin-1-ylpropoxy)-3-pyridyl]imidazo[4,5-c]quinolin-2-one]",3320 nM,–,1490 nM,7850 nM
"CO[C@@H]1CC[C@@H](n2c(=O)n(C)c3cnc4ccc(-c5ccc(OCCCN6CCCC6)nc5)cc4c32)C1 [Example 67, 1-[(1R,3R)-3-methoxycyclopentyl]-3-methyl-8-[6-(3-pyrrolidin-1-ylpropoxy)-3-pyridyl]imidazo[4,5-c]quinolin-2-one]",996 nM,–,> 2850 nM,15200 nM
"CO[C@H]1CC[C@H](n2c(=O)n(C)c3cnc4ccc(-c5ccc(OCCCN(C)C)nc5F)cc4c32)C1 [Example 69, 8-[6-[3-(dimethylamino)propoxy]-2-fluoro-3-pyridyl]-1-[(1S,3S)-3-methoxycyclopentyl]-3-methyl-imidazo[4,5-c]quinolin-2-one]",–,0.324 nM,> 2770 nM,> 30000 nM
